{
  "source": "paper PMC6560211",
  "about": "“ApoAI-derived peptide increases glucose tolerance and prevents formation of atherosclerosis in mice” (Diabetologia, 2019)",
  "key": {"[1]": {"test": "rHDL formation, particle size by DLS", "details": "1:100 protein:lipid molar ratio, extruded 100 nm MLVs, 4 days (96 h), 24°C", "description": "1,2-dimyristoyl-sn-glycero-3-phosphocholine (DMPC; Avanti Polar Lipids, Alabaster, AL, USA) was formed into 100 nm multilamellar vesicles (MLV) via extrusion using the LiposoFast system (Avestin, Ottawa, ON, Canada) as previously described. MLV were incubated with RG54 or ApoA-I at the indicated ratios for 4 days at 24°C to form rHDL. The resulting particle sizes were measured by dynamic light scattering (DLS) using a Zetasizer APS (Malvern Instruments, Uppsala, Sweden).\nThe reduced initial rate may be due to a more complex binding pattern of the larger number of RG54 peptides needed per formed particle: four to five RG54 molecules (54 amino acids each) are needed to make up the size of full-length ApoA-I (243 amino acids). A qualitative assessment of particle formation was therefore next used to evaluate and compare the sizes of formed rHDL. The hydrodynamic diameters of lipid–protein complexes formed after extended incubation (96 h) of RG54 or ApoA-I with extruded 100 nm MLVs were estimated using DLS.\nESM Figure 4. Lipid clearance and peptide-lipid complex formation activity of RG54 compared with full-length ApoA-I. […]"}, "DIO C57BL/6NTac mice": {"system": "DIO C57BL/6NTac mice", "test": "GTT in diet-induced obesity (DIO) mice", "assay_type": "in vivo, mouse", "details": "for fasting glucose levels / fasting insulin levels / insulin sensitivity as measured by QUICKI: DIO mice, 3 h treatment, i.p.", "description": "(§1) Male C57BL/6NTac mice (Taconic, Ejby, Denmark) at 8–9 weeks of age were acclimatised for 1 week on a normal chow diet, then changed to a high-fat diet for 2 weeks (diet-induced obesity; DIO), followed by GTT as indicated. Male Lepr^db (db/db) mice on a BKS background (Taconic) at 5 weeks of age were maintained on a normal chow diet and GTTs were performed at 5.5 and 14 weeks of age as indicated. Blood glucose levels were measured in fresh blood (C57: OneTouch Ultra2, Lifescan, Milpitas, CA, USA; db/db: GlucoSmart Swing, MSP bodmann, Bobingen, Germany) and insulin levels were assayed in serum using ELISA (Mercodia) at the times indicated in ESM Fig. 2. See ESM Methods for more details.\nThe effect of RG54 peptide on glucose disposal was investigated in an established insulin-resistant mouse model. DIO mice were fasted for 9 h followed by a single i.p. dose of RG54 (12 mg/kg), ApoA-I (14 mg/kg), liraglutide (0.1 mg/kg), or an equal volume of NaCl solution. After a further 3 h fasting period, GTTs were performed (Fig. 4a,b).\n(§2) Fig. 4 Acute treatment with RG54 improves glucose tolerance during GTTs in three models of type 2 diabetes. Male C57Bl/6 mice fed a high-fat diet for 2 weeks (a–d) or db/db mice at 5.5 (e–h) or 14 (i–l) weeks old were fasted overnight, then treated with a single i.p. injection of NaCl (negative control, 200 μl; C57, n=12; db/db 5.5 weeks, n=6; db/db 14 weeks, n=6), liraglutide (0.1 mg/kg; C57, n=11; db/db 5.5 weeks, n=6; db/db 14 weeks, n=6), ApoA-I (14 mg/kg; C57, n=12; db/db 5.5 weeks, n=6; db/db 14 weeks, n=6) or RG54 (12 mg/kg; C57, n=12; db/db 5.5 weeks, n=6; db/db 14 weeks, n=5). After a further 3 h, mice received an i.p. glucose load (40 mg/mouse for C57; 50 mg/mouse for db/db) followed by blood and plasma collection at the indicated times, and blood glucose (a,e,i) and plasma insulin (b,f,j) concentrations were determined. Total AUC was calculated (mmol/l × min for glucose, pmol/l × min for insulin) and then normalised to the average value of the relevant NaCl control group to give relative AUC (% control) for glucose (c,g,k) and insulin (d,h,l). Values are means ± SEM. *p≤0.05, **p≤0.01, ***p≤0.001 vs NaCl control […]\nWe directly compared the i.p. and s.c. injection routes in DIO mice. DIO mice were fasted for 9 h, followed by a single i.p. or s.c. injection of RG54 (12 mg/kg), ApoA-I (14 mg/kg), or an equal volume of NaCl solution. After a further 3 h fasting and incubation period, GTTs were performed. […] Finally, we assessed the dose response of s.c. RG54 to find treatment concentrations with full or partial effects on glycaemic control as compared with our positive control (Fig. 6).\nMale C57Bl/6 mice fed a high-fat diet for 2 weeks were fasted overnight, then treated with a single i.p. or s.c. injection of NaCl (negative control, 200 μl, n=6), ApoA-I (14 mg/kg, n=6) or RG54 (12 mg/kg, n=6). After a further 3 h, all mice received an i.p. glucose load (40 mg/mouse) followed by blood and plasma collection at the indicated times, and blood glucose (a,b) and plasma insulin (d,e) concentrations were determined for all injection routes. Total AUC was calculated (mmol/l × min for glucose, pmol/l × min for insulin) and then normalised to the average value of the relevant NaCl control group to give relative AUC (% control) for glucose (c) and insulin (f). Values are means ± SEM. ***p≤0.001 vs NaCl control […]\nMale C57BL/6NTac mice were purchased from Taconic (Ejby, Denmark) at 8-9 weeks of age, acclimatised for one week on normal chow diet, then changed to a High-Fat Diet (HFD; Research Diets D12492, 60% fat content) for 2 weeks, followed by glucose tolerance testing (GTT) with timings as indicated (ESM Figure 2). Male Leprdb mice (db/db) on BKS background purchased from Taconic (BKS.Cg-m+/+Leprdb/BomTac, Ejby, Denmark) at 5 weeks of age were maintained on normal chow diet and GTTs were performed at 5.5 and 14 weeks of age with timings as indicated (ESM Figure 2). For the GTTs, mice fasted overnight […]"}, "Lepr db (db/db) mice": {"system": "Lepr db (db/db) mice", "test": "GTT in db/db mice", "assay_type": "in vivo, mouse", "details": "db/db 5.5 weeks", "description": "as §1, §2\nWe next used type 2 diabetes models with a more advanced phenotype: db/db mice at 5.5 and 14 weeks of age.\nAt 14 weeks of age, mice were markedly obese with a mean ± SEM body weight of 55.3 ± 0.6 g. […] One mouse was excluded from RG54 treatment group because of very high residual insulin secretion prior to the experiment.\nMale C57BL/6NTac mice were purchased from Taconic (Ejby, Denmark) at 8-9 weeks of age, acclimatised for one week on normal chow diet, then changed to a High-Fat Diet (HFD; Research Diets D12492, 60% fat content) for 2 weeks, followed by glucose tolerance testing (GTT) with timings as indicated (ESM Figure 2). Male Leprdb mice (db/db) on BKS background purchased from Taconic (BKS.Cg-m+/+Leprdb/BomTac, Ejby, Denmark) at 5 weeks of age were maintained on normal chow diet and GTTs were performed at 5.5 and 14 weeks of age with timings as indicated (ESM Figure 2). For the GTTs, mice fasted overnight (9 h) were injected with the appropriate treatment, and after an additional 3 h given ip glucose (C57: 40 mg/mouse; db/db: 50 mg/mouse) followed by collection of serum samples at the indicated times. Blood glucose levels were measured in fresh blood (C57: OnetouchUltra2, Lifescan; db/db: GlucoSmart Swing, MSP bodmann) and insulin levels were assayed in serum using ELISA (Mercodia). db/db mice were independently randomized to treatments groups for GTT at each time point as no carry over was expected between experiments due to the acute nature of the treatment effects. Primary outcomes were blood glucose and insulin measurements during the GTT. C57BL/6NTac mice were euthanized immediately after each experiment whereas db/db were euthanized immediately after the GTT at 14 weeks of age. […]\nand reproducible clinical symptoms of diabetes than females in these models [5; 6] thus ensuring the reproducibility of clinical symptoms between animals within the study. […]"}},
  "data": [
    {"molecule": "ApoA-I: Recombinant human ApoA-I, full-length (243 amino acids), used as control", "values": [
      {"measurement": "lipid-protein complexes formed (DLS frequency plots)", "setting": "[1]", "value": "single peaks corresponding to rHDL particles"},
      {"measurement": "fasting glucose levels", "setting": "DIO C57BL/6NTac mice", "value": "significantly lowered"},
      {"measurement": "fasting insulin levels", "setting": "DIO C57BL/6NTac mice", "value": "no concomitant increase"},
      {"measurement": "insulin sensitivity as measured by QUICKI", "setting": "DIO C57BL/6NTac mice", "value": "no change"},
      {"measurement": "insulin secretion in GTT", "setting": "DIO C57BL/6NTac mice; route comparison, i.p. injection, RG54 12 mg/kg, ApoA-I 14 mg/kg, n=6", "value": "increased insulin secretion"},
      {"measurement": "fasting glucose levels", "setting": "Lepr db (db/db) mice; 3 h treatment, i.p.", "value": "significantly lowered"},
      {"measurement": "fasting insulin secretion", "setting": "Lepr db (db/db) mice; 3 h treatment, i.p.", "value": "no significant changes"},
      {"measurement": "insulin sensitivity as measured by QUICKI", "setting": "Lepr db (db/db) mice; 3 h treatment, i.p.", "value": "no concomitant change"}
    ]},
    {"molecule": "CCCCCCCCCCCCCCCC(=O)N[C@@H](CCC(=O)NCCCC[C@H](NC(=O)[C@H](C)NC(=O)[C@H](C)NC(=O)[C@H](CCC(N)=O)NC(=O)CNC(=O)[C@H](CCC(=O)O)NC(=O)[C@H](CC(C)C)NC(=O)[C@H](Cc1ccc(O)cc1)NC(=O)[C@H](CO)NC(=O)[C@H](CO)NC(=O)[C@@H](NC(=O)[C@H](CC(=O)O)NC(=O)[C@H](CO)NC(=O)[C@@H](NC(=O)[C@H](Cc1ccccc1)NC(=O)[C@@H](NC(=O)CNC(=O)[C@H](CCC(=O)O)NC(=O)[C@H](C)NC(=O)[C@@H](N)Cc1c[nH]cn1)[C@@H](C)O)[C@@H](C)O)C(C)C)C(=O)N[C@@H](CCC(=O)O)C(=O)N[C@@H](Cc1ccccc1)C(=O)N[C@H](C(=O)N[C@@H](C)C(=O)N[C@@H](Cc1c[nH]c2ccccc12)C(=O)N[C@@H](CC(C)C)C(=O)N[C@H](C(=O)N[C@@H](CCCNC(=N)N)C(=O)NCC(=O)N[C@@H](CCCNC(=N)N)C(=O)NCC(=O)O)C(C)C)[C@@H](C)CC)C(=O)O", "note": "[liraglutide, reference compound]", "values": [
      {"measurement": "fasting glucose levels", "setting": "DIO C57BL/6NTac mice", "value": "significantly lowered"},
      {"measurement": "fasting insulin levels", "setting": "DIO C57BL/6NTac mice", "value": "no concomitant increase"},
      {"measurement": "insulin sensitivity as measured by QUICKI", "setting": "DIO C57BL/6NTac mice", "value": "no change"},
      {"measurement": "insulin secretion at the 15-min time point", "setting": "Lepr db (db/db) mice; liraglutide 0.1 mg/kg i.p.", "value": "modest, transient increase"},
      {"measurement": "overall insulin AUC", "setting": "Lepr db (db/db) mice; liraglutide 0.1 mg/kg i.p.", "value": "not increased"}
    ]}
  ]
}
